The values that follow come from patent publication US5244897A, “Glycyl-p-amino-pyridine for the treatment of senile dementia states” (priority 1989, dated 1993).

SMILES strings stand for the structures.

Data set [1] in a line: acute convulsant activity after oral administration (Litchfield and Wilcoxon). The class given is in vivo. The conditions noted are these: Swiss male mice; for TD50: mouse, in vivo, read-out: CD50 (Convulsant Doses 50).
Data set [2] can be described thus: acute toxicity after oral administration (Litchfield and Wilcoxon). The class given is in vivo. The conditions noted are these: Swiss mice; for LD50: mouse, in vivo.
In data set [3] the test system is acetylcholine release from the rat's cerebral cortex. Kind of data set: acetylcholine release in vivo, acute treatment. The conditions noted are these: 5.6 mg/kg i.p., anesthetized rats, n=5. The procedure: Effect on acetylcholine release from the rat's cerebral cortex "in vivo"
In this study the Acetylcholine release from the cerebral cortex was investigated in anesthetized rats (n=5) at different times before and after i.p. administration of MR-3066 at a dose of 5.6 mg/kg.

Data set [4] in a line: toxicity after repeated oral administration, 30 days, preliminary study. In kind it is in vivo, male and female Sprague Dawley rat. The conditions noted are these: 6 mg/kg oral, 30 consecutive days, rat. On the procedure:
The toxicity of MR-3066 after repeated administration was evaluated in male and female Sprague Dawley rat after oral administration of the drug (6 mg/kg) for 30 consecutive days.

Data set [5] deals with electroconvulsive shock (ECS) induced amnesia. Kind of data set: electroconvulsive shock (ECS) induced amnesia (passive avoidance). The class given is in vivo, male mice. Conditions: n=20; for minimal effective dose: Mus musculus, ip, read-out: Active dose (significantly prolonged the latency). On the procedure: Male mice (body weight 23-26 grams) were used.
Test apparatus and passive avoidance training (acquisition trial) were as described in the previous section.
Immediately after acquisition trial, amnesia was induced by electroconsulsive shock (ECS).
Test compounds were administered intraperitoneally soon afterwards the exposure to ECS.
The test trial was performed 24 h after the acquisition trial: the animals were put in the illuminated compartment an the latency time to enter the unlighted compartment was recorded
(§1) Anti-amnesic activity was calculated according to the following formula.
(§2) % of control = (the mean latency time of test compound treated mice/the
(§3) mean latency time of vehicle treated mice) × 100.

Data set [6] has as its system retention of passive avoidance response. Kind of data set: learning behavior in normal mice (passive avoidance response). Conditions: n=20. In kind it is in vivo, male mice. The procedure:
Male mice (body weight ca 20 grams) were used. The test apparatus was a box with a dark compartment and an illuminated one.
The animal was placed in the illuminated compartment, foot-shock was given immediately after the mouse moved in the dark compartement (acquisition trial).
MR-3066 was intraperitoneally administered immediately after the acquisition trial.
The test trial was carried out 24 h following the acquisition trial and the latency time to enter the dark compartment was recorded.
Anti-amnesic activity was calculated according to the following formula:
of control = (the mean latency time of test compound treated mice/the mea
latency time of vehicle treated mice) 100.

Data set [7] is described as follows: properties stated in the general summary. The class given is in vivo. The conditions noted are these: general statement.
Data set [8] concerns scopolamine-induced amnesia. Kind of data set: scopolamine-induced amnesia (passive avoidance). In kind it is in vivo, mice. Conditions: for minimal effective dose: Mus musculus, ip, read-out: Active dose (significantly prolonged the latency). The procedure: Test apparatus, mice and passive avoidance training (acquisition trial) were as described in the previous sections (4.2-4.3). The compounds were intraperitoneally administered 30 min. before the acquisition trial.
Amnesia was induced by scolopolamine (1 mg/kg s.c.) given 20 min. prior to the acquisition trial; the test trial was performed after 24 hours.
The animals were put in the illuminated compartment and latency time to enter the dark compartment was recorded.
as §1, §2, §3

A short description of data set [9]: mean blood pressure (reported with the transcallosal evoked potential study). The conditions noted are these: for mean blood pressure: MR-3066 2 mg/kg i.v., physostigmine 0.1 mg/kg i.v. The class given is in vivo, rats. The procedure:
(§4) Electric stimulus was given to the callosum of urethane anesthetized rats, and transcallosal evoked potential from the opposite side cerebral cortex was measured.
(§5) The effects of the compounds on the transcallosal evoked potential were studied in rats.

The test system of data set [10] is spontaneous EEG (motor cortex, hippocampus, nucleus amygdalae). Kind of data set: spontaneous EEG. Conditions: 0.1 mg/kg i.v., rabbits. In kind it is in vivo. The text has this:
Electrodes were chronically implanted in the motor cortex, the hippocampus and the nucleus amygdalae of rabbits (n=4).
The effects of compounds on spontaneous EEG were studied in the animals.

Data set [11] relates to transcallosal evoked potential from the opposite side cerebral cortex. Kind of data set: transcallosal evoked potential. In kind it is in vivo, urethane anesthetized rats. Conditions: 0.1 mg/kg i.v., rats. The procedure: as §4, §5
Where [12] appears, read: ECS amnesia, 1 mg/kg i.p., MR-3066 ** P < 0.01 vs control.
Where [13] appears, read: ECS amnesia, 2,5 mg/kg i.p., MR-3066 * P < 0.05, THA ** P < 0.01 vs control.

Turning to `Nc1ccncc1` [4-aminopyridine, reference compound], the TD50 in [1] was determined as 5 mg/kg. The molecule further showed an LD50 in data set [2] of 12 mg/kg.

Take `NCC(=O)Nc1ccncc1` [MR-3066, glycyl-p-amino-pyridine monoacetate]: the “time of peak of Ach release” value in data set [3] was 45 '. Also, the “toxic phenomena after repeated administration” value in data set [4] is “no toxic phenomenon except for a slight decrease in body weight, increase in the female accompanied by a reduction in food consumption”. Besides, the “Anti-amnesic activity (% of control)” value is given as 148,2 % of control in data set [5] (ECS amnesia, 0,1 mg/kg i.p.); 121,6 % of control in data set [5] (ECS amnesia, 0,5 mg/kg i.p.); 147,8 % of control in data set [5] (ECS amnesia, 0,25 mg/kg i.p.); 189,6 % of control in data set [5] (setting [12]); 148 % of control in data set [5] (ECS amnesia, 5 mg/kg i.p.); 165,5 % of control in [5] (setting [13]). For the same molecule, the “Anti-amnesic activity (% of control)” value is on record as 157,6 % of control in data set [8] (scopolamine amnesia, 0,5 mg/kg i.p.); 188,1 % of control in [8] (scopolamine amnesia, 1 mg/kg i.p., ** P < 0.01 vs controls); 159,5 % of control in data set [8] (scopolamine amnesia, 5 mg/kg i.p.); 145,2 % of control in [8] (scopolamine amnesia, 2,5 mg/kg i.p.). The “convulsant activity versus 4-aminopyridine” value in data set [1] is “less convulsant than 4-aminopyridine”. Further, the TD50 in [1] came out at 19 mg/kg. In addition, the “Mean latency (% of control)” value was 120.5 % of control in data set [6] (1 mg/kg i.p.); 118.8 % of control in [6] (2.5 mg/kg i.p.); 136.1 % of control in [6] (5 mg/kg i.p., ** P < 0.01 vs control). Further, the minimal effective dose in data set [6] (Mus musculus, ip, passive avoidance, normal mice, read-out: Active dose (significantly prolonged the latency)) was determined as 5 mg/kg; in data set [8] (scopolamine amnesia) it was 1 mg/kg. The Parkinson-like effect entry in data set [7] is “without nevertheless showing Parkinson-like effect”. In data set [2], the “acute toxicity versus 4-aminopyridine” value was “toxicity lower than 4-aminopiridine”. In data set [2], this molecule gave an LD50 of 29 mg/kg. In addition, the mean blood pressure result in [9] is given as “raised the mean blood pressure”.

Regarding `Nc1c2c(nc3ccccc13)CCCC2` [THA], the “Anti-amnesic activity (% of control)” value was 72,2 % of control in [5] (ECS amnesia, 0,5 mg/kg i.p.); 114,4 % of control in [5] (setting [12]); 184,5 % of control in data set [5] (setting [13]). Further, the “Active dose (significantly prolonged the latency)” value in data set [5] (ECS amnesia) worked out at 2.5 mg/kg i.p. Besides, the minimal effective dose in data set [5] (ECS amnesia) was determined as 2.5 mg/kg.

For the molecule `CNC(=O)Oc1ccc2c(c1)[C@]1(C)CCN(C)[C@@H]1N2C` [Physostigmine], in data set [10], the “onset of the EEG effects” value is reported as “immediately after the administration”. For the same molecule, the “Anti-amnesic activity (% of control)” value in data set [5] (ECS amnesia, 0,05 mg/kg i.p., * P < 0.05) is 165,6 % of control; in [5] (ECS amnesia, 0,025 mg/kg i.p., * P < 0.05), 172,9 % of control; in [5] (ECS amnesia, physostigmine 0,1 mg/kg i.p.) it was 148 % of control; in data set [8] (scopolamine amnesia, 0,1 mg/kg i.p., * P < 0.05) it was 155,5 % of control; in data set [8] (scopolamine amnesia, 0,05 mg/kg i.p.), 134,5 % of control; in [8] (scopolamine amnesia, 0,025 mg/kg i.p.) it was 119,5 % of control. The minimal effective dose in data set [5] (ECS amnesia) was 0.025 to 0.05 mg/kg; in data set [8] (scopolamine amnesia) it was 0.1 mg/kg. The “amplitude of negative wave of transcallosal evoked potential” value in [11] is “increased the amplitude of negative wave”. Moreover, the “Active dose (significantly prolonged the latency)” value in [8] (scopolamine amnesia) is 0,1 mg/kg i.p. Moreover, in [9], the mean blood pressure result was “raised the mean blood pressure”. Also, the “mean blood pressure effect versus MR-3066” value in data set [9] (physostigmine 0.1 mg/kg i.v. vs MR-3066 2 mg/kg i.v.) was “much more marked than MR-3066”.
